Source: patent US20260297542A1, “HERBICIDE RESISTANT PLANTS” (SYNGENTA CROP PROTECTION AG, priority 2023, published 2026)
Substitutions are numbered along the chain they refer to.

Legend:
Experiment in all cases: E. coli hemG growth inhibition by herbicide, AtPPO1 variant
Type in all cases: cell-based
Settings in all cases: read-out: percentage growth inhibition
AtPPO1 G510N = biological target: T1, AtPPO1 G510N (Arabidopsis thaliana, UniProt P55826, G510N)
T1 construct: expressed in transfected cells; host or cells: E. coli BL21(DE3) hemG, pET24a plasmid
T1 sequence (P55826 35-537 G510N): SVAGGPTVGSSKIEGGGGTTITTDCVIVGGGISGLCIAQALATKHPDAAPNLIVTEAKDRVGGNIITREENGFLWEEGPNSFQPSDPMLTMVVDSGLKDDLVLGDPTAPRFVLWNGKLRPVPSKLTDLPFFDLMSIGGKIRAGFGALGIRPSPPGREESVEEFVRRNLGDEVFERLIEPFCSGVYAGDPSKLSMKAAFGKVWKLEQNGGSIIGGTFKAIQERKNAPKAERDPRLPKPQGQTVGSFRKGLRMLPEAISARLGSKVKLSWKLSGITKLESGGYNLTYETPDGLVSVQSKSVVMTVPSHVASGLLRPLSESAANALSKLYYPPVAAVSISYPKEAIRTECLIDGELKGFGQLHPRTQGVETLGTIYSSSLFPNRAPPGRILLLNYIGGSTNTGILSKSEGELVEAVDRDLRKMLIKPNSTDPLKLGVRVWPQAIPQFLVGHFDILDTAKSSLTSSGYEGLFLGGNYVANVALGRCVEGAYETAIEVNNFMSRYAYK
Procedure, shortened: (§1)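 E. coli BL21(DE3) ΔhemG::CmR complemented by AtPPO1 variants (pET24a, T7, E. coli codon-optimised); TB + 0.1 mM IPTG, 1:100 inoculum; 6.25 ppm herbicide 0/E or 0.78 ppm herbicide B vs DMSO; 24 h, 37° C, 250 rpm; OD600 at 24 h → % growth inhibition.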

AtPPO1 L360C = biological target: T2, AtPPO1 L360C (Arabidopsis thaliana, UniProt P55826, L360C)
T2 construct: expressed in transfected cells; host or cells: E. coli BL21(DE3) hemG (pET24a, T7 promoter)
T2 sequence (P55826 35-537 L360C): T1 sequence (P55826 35-537 G510N) with L326C, N476G
Procedure, shortened: as §1

AtPPO1 R449K = biological target: T3, AtPPO1 R449K (Arabidopsis thaliana, UniProt P55826, R449K)
T3 construct: expressed in transfected cells; host or cells: E. coli BL21(DE3) hemG, pET24a plasmid
T3 sequence (P55826 35-537 R449K): T1 sequence (P55826 35-537 G510N) with R415K, N476G
Procedure, shortened: as §1

AtPPO1 V511N = biological target: T4, AtPPO1 V511N (Arabidopsis thaliana, UniProt P55826, V511N)
T4 construct: expressed in transfected cells; host or cells: E. coli BL21(DE3) hemG, pET24a plasmid
T4 sequence (P55826 35-537 V511N): T1 sequence (P55826 35-537 G510N) with N476G, V477N
Procedure, shortened: as §1

SMILES | inhibition at 0.78 ppm (AtPPO1 G510N) [%] | inhibition at 0.78 ppm (AtPPO1 L360C) [%] | inhibition at 0.78 ppm (AtPPO1 R449K) [%] | inhibition at 0.78 ppm (AtPPO1 V511N) [%] | inhibition at 6.25 ppm (AtPPO1 G510N) [%] | inhibition at 6.25 ppm (AtPPO1 L360C) [%] | inhibition at 6.25 ppm (AtPPO1 R449K) [%] | inhibition at 6.25 ppm (AtPPO1 V511N) [%]
C#CCN1C(=O)C(F)(F)Oc2cc(F)c(-n3c(=O)n(C)c(=S)n(C)c3=O)cc21 [Herbicide B, trifludimoxazin] | 24 | 25 | 35 | 20 |  |  |  | 
CCOC(=O)[C@]1(C)CC(c2cc(-n3c(=O)n(C)c(=S)n(C)c3=O)c(F)cc2Cl)=NO1 [Herbicide D, ethyl (5S)-3-[2-chloro-5-(3,5-dimethyl-2,6-dioxo-4-thioxo-1,3,5-triazinan-1-yl)-4-fluoro-phenyl]-5-methyl-4H-isoxazole-5-carboxylate] |  |  |  |  | 31 | 21 | 37 | 22
CC(C)N(C)S(=O)(=O)NC(=O)c1cc(-n2c(=O)cc(C(F)(F)F)n(C)c2=O)c(F)cc1Cl [Herbicide E, saflufenacil] |  |  |  |  | 70 | 33 | 68 | 48
